# From patent publication US11684607B2, “Secnidazole for use in the treatment of bacterial vaginosis” (priority 2014, dated 2023)
# Like-named read-outs stand apart in the source and are kept apart here.
# Assays:
# [1] = Effect of a single 2 g dose of SYM-1219 on the plasma pharmacokinetics of EE2 and NET in healthy female subjects; type: in vivo, human
# Description: Methods: Fifty-four (54) healthy female subjects, ages 18-65, received EE2/NET alone and in combination, where SYM-1219+EE2/NET were co-administered on Day 1 (Group B1; N=27) or SYM-1219 on Day 1 and EE2/NET on Day 2 (Group B2; N=27). Serial blood samples were drawn to measure plasma concentrations of EE2/NET. […] Safety was evaluated by recording of adverse events, vital signs, ECGs and standard laboratory tests.
# [2] = test system: bacterial vaginosis; experiment: Phase 2 double-blind placebo-controlled study, clinical outcome responder (clinical cure) in women with bacterial vaginosis; type: in vivo, human
# Excerpt: The study was designed in accordance with FDA guidance for pivotal bacterial vaginosis trials with a primary end point clinical cure in the Modified Intent-to-Treat (mITT) population at day 21 to 30 versus placebo (two-sided test at alpha=0.05). Subjects were recruited to the study they presented with the following Amsel criteria: presence of typical discharge. a positive KOH Whiff test vaginal fluid pH greater than or equal to 4.7, and the presence of “clue cells” (epithelial cells with adhering bacteria) on microscopic examination.
# [3] = EE2/NET administered 1 day after SYM-1219
# [4] = Group B1: Period 2 (EE2/NET followed by SYM-1219 2 grams on Day 1) vs Period 1 (EE2/NET alone)
# [5] = Group B1 Period 1: EE2/NET alone
# [6] = Group B1 Period 2: EE2/NET followed by SYM-1219 2 grams on Day 1
# [7] = Group B2: Period 2 (SYM-1219 2 grams on Day 1, EE2/NET on Day 2) vs Period 1 (EE2/NET alone)
# [8] = Group B2: SYM-1219 2 g on Day 1, EE2/NET on Day 2
# [9] = Group B2 Period 1: EE2/NET alone
# [10] = Group B2 Period 2: SYM-1219 2 grams on Day 1, EE2/NET on Day 2
compound,measurement,setting,value
"C#C[C@]1(O)CC[C@H]2[C@@H]3CCC4=CC(=O)CC[C@@H]4[C@H]3CC[C@@]21C [NET, norethindrone]","NET Cmax, AUC0-t or AUC0-∞ increase",[1]; [3],9-16%
same,NET upper value of the 90% CI for Cmax,[1]; [3],131%
same,"NET AUC0-t, Geometric LSMean % Ratio (100 * Test/Reference)",[1]; [4],115.52%
same,"NET AUC0-∞, Geometric LSMean % Ratio (100 * Test/Reference)",[1]; [4],116.27%
same,"NET Cmax, Geometric LSMean % Ratio (100 * Test/Reference)",[1]; [4],113.18%
same,NET Cmax and AUC increase,[1]; Group B1: SYM-1219 2 g and EE2/NET co-administered on Day 1,13%
same,"NET λz, Mean",[1]; [5],0.07709 h⁻¹
same,"NET λz, Median",[1]; [5],0.07966 h⁻¹
same,"NET λz, Mean",[1]; [6],0.07886 h⁻¹
same,"NET λz, Median",[1]; [6],0.07642 h⁻¹
same,"NET AUC0-t, Geometric LSMean % Ratio (100 * Test/Reference)",[1]; [7],110.78%
same,"NET AUC0-∞, Geometric LSMean % Ratio (100 * Test/Reference)",[1]; [7],108.75%
same,"NET Cmax, Geometric LSMean % Ratio (100 * Test/Reference)",[1]; [7],116.46%
same,NET Cmax increase,[1]; [8],16%
same,change in NET AUC,[1]; [8],no change
same,"NET λz, Mean",[1]; [9],0.07369 h⁻¹
same,"NET λz, Median",[1]; [9],0.07458 h⁻¹
same,"NET Cmax, Mean",[1]; [10],10.6 ng/mL
same,"NET λz, Mean",[1]; [10],0.07685 h⁻¹
same,"NET λz, Median",[1]; [10],0.07539 h⁻¹
same,"NET Cmax, AUC0-t or AUC0-∞ increase",[1]; SYM-1219 administered immediately after EE2/NET,13-16%
same,AUC(0-t),"[1]; female, human, plasma, Group B1 Period 1: EE2/NET alone, read-out: NET AUC0-t, Geometric LSMeans",42.2 ng·h/mL
same,AUC(0-t),"[1]; female, human, plasma, Group B1 Period 1: EE2/NET alone, read-out: NET AUC0-t, Mean",49.4 ng·h/mL
same,AUC(0-t),"[1]; female, human, plasma, Group B1 Period 1: EE2/NET alone, read-out: NET AUC0-t, Median",38.7 ng·h/mL
same,AUC(0-inf),"[1]; female, human, plasma, Group B1 Period 1: EE2/NET alone, read-out: NET AUC0-∞, Geometric LSMeans",48.5 ng·h/mL
same,AUC(0-inf),"[1]; female, human, plasma, Group B1 Period 1: EE2/NET alone, read-out: NET AUC0-∞, Mean",57.8 ng·h/mL
same,AUC(0-inf),"[1]; female, human, plasma, Group B1 Period 1: EE2/NET alone, read-out: NET AUC0-∞, Median",45.3 ng·h/mL
same,Cmax,"[1]; female, human, plasma, Group B1 Period 1: EE2/NET alone, read-out: NET Cmax, Geometric LSMeans",8.09 ng/mL
same,Cmax,"[1]; female, human, plasma, Group B1 Period 1: EE2/NET alone, read-out: NET Cmax, Mean",9.18 ng/mL
same,Cmax,"[1]; female, human, plasma, Group B1 Period 1: EE2/NET alone, read-out: NET Cmax, Median",8 ng/mL
same,Tmax,"[1]; female, human, plasma, Group B1 Period 1: EE2/NET alone, read-out: NET Tmax, Median",1 h
same,half-life,"[1]; female, human, plasma, Group B1 Period 1: EE2/NET alone, read-out: NET t1/2, Mean (converted)",9.6 h
same,half-life,"[1]; female, human, plasma, Group B1 Period 1: EE2/NET alone, read-out: NET t1/2, Median (converted)",8.71 h
same,AUC(0-t),"[1]; female, human, plasma, Group B1 Period 2: EE2/NET followed by SYM-1219 2 grams on Day 1, read-out: NET AUC0-t, Geometric LSMeans",48.7 ng·h/mL
same,AUC(0-t),"[1]; female, human, plasma, Group B1 Period 2: EE2/NET followed by SYM-1219 2 grams on Day 1, read-out: NET AUC0-t, Mean",53.5 ng·h/mL
same,AUC(0-t),"[1]; female, human, plasma, Group B1 Period 2: EE2/NET followed by SYM-1219 2 grams on Day 1, read-out: NET AUC0-t, Median",48.9 ng·h/mL
same,AUC(0-inf),"[1]; female, human, plasma, Group B1 Period 2: EE2/NET followed by SYM-1219 2 grams on Day 1, read-out: NET AUC0-∞, Geometric LSMeans",56.4 ng·h/mL
same,AUC(0-inf),"[1]; female, human, plasma, Group B1 Period 2: EE2/NET followed by SYM-1219 2 grams on Day 1, read-out: NET AUC0-∞, Mean",62.4 ng·h/mL
same,AUC(0-inf),"[1]; female, human, plasma, Group B1 Period 2: EE2/NET followed by SYM-1219 2 grams on Day 1, read-out: NET AUC0-∞, Median",54.3 ng·h/mL
same,Cmax,"[1]; female, human, plasma, Group B1 Period 2: EE2/NET followed by SYM-1219 2 grams on Day 1, read-out: NET Cmax, Geometric LSMeans",9.16 ng/mL
same,Cmax,"[1]; female, human, plasma, Group B1 Period 2: EE2/NET followed by SYM-1219 2 grams on Day 1, read-out: NET Cmax, Mean",10.1 ng/mL
same,Cmax,"[1]; female, human, plasma, Group B1 Period 2: EE2/NET followed by SYM-1219 2 grams on Day 1, read-out: NET Cmax, Median",9.45 ng/mL
same,half-life,"[1]; female, human, plasma, Group B1 Period 2: EE2/NET followed by SYM-1219 2 grams on Day 1, read-out: NET t1/2, Mean (converted)",9.6 h
same,half-life,"[1]; female, human, plasma, Group B1 Period 2: EE2/NET followed by SYM-1219 2 grams on Day 1, read-out: NET t1/2, Median (converted)",9.12 h
same,AUC(0-t),"[1]; female, human, plasma, Group B2 Period 1: EE2/NET alone, read-out: NET AUC0-t, Geometric LSMeans",46.9 ng·h/mL
same,AUC(0-t),"[1]; female, human, plasma, Group B2 Period 1: EE2/NET alone, read-out: NET AUC0-t, Mean",61.4 ng·h/mL
same,AUC(0-t),"[1]; female, human, plasma, Group B2 Period 1: EE2/NET alone, read-out: NET AUC0-t, Median",41.7 ng·h/mL
same,AUC(0-inf),"[1]; female, human, plasma, Group B2 Period 1: EE2/NET alone, read-out: NET AUC0-∞, Geometric LSMeans",55.1 ng·h/mL
same,AUC(0-inf),"[1]; female, human, plasma, Group B2 Period 1: EE2/NET alone, read-out: NET AUC0-∞, Mean",75 ng·h/mL
same,AUC(0-inf),"[1]; female, human, plasma, Group B2 Period 1: EE2/NET alone, read-out: NET AUC0-∞, Median",47.4 ng·h/mL
same,Cmax,"[1]; female, human, plasma, Group B2 Period 1: EE2/NET alone, read-out: NET Cmax, Geometric LSMeans",8.36 ng/mL
same,Cmax,"[1]; female, human, plasma, Group B2 Period 1: EE2/NET alone, read-out: NET Cmax, Mean",9.63 ng/mL
same,Cmax,"[1]; female, human, plasma, Group B2 Period 1: EE2/NET alone, read-out: NET Cmax, Median",8.16 ng/mL
same,half-life,"[1]; female, human, plasma, Group B2 Period 1: EE2/NET alone, read-out: NET t1/2, Mean (converted)",10 h
same,half-life,"[1]; female, human, plasma, Group B2 Period 1: EE2/NET alone, read-out: NET t1/2, Median (converted)",9.29 h
same,AUC(0-t),"[1]; female, human, plasma, Group B2 Period 2: SYM-1219 2 grams on Day 1, EE2/NET on Day 2, read-out: NET AUC0-t, Geometric LSMeans",51.9 ng·h/mL
same,AUC(0-t),"[1]; female, human, plasma, Group B2 Period 2: SYM-1219 2 grams on Day 1, EE2/NET on Day 2, read-out: NET AUC0-t, Mean",61.2 ng·h/mL
same,AUC(0-t),"[1]; female, human, plasma, Group B2 Period 2: SYM-1219 2 grams on Day 1, EE2/NET on Day 2, read-out: NET AUC0-t, Median",44.5 ng·h/mL
same,AUC(0-inf),"[1]; female, human, plasma, Group B2 Period 2: SYM-1219 2 grams on Day 1, EE2/NET on Day 2, read-out: NET AUC0-∞, Geometric LSMeans",60 ng·h/mL
same,AUC(0-inf),"[1]; female, human, plasma, Group B2 Period 2: SYM-1219 2 grams on Day 1, EE2/NET on Day 2, read-out: NET AUC0-∞, Mean",71.5 ng·h/mL
same,AUC(0-inf),"[1]; female, human, plasma, Group B2 Period 2: SYM-1219 2 grams on Day 1, EE2/NET on Day 2, read-out: NET AUC0-∞, Median",51.6 ng·h/mL
same,Cmax,"[1]; female, human, plasma, Group B2 Period 2: SYM-1219 2 grams on Day 1, EE2/NET on Day 2, read-out: NET Cmax, Geometric LSMeans",9.74 ng/mL
same,Cmax,"[1]; female, human, plasma, Group B2 Period 2: SYM-1219 2 grams on Day 1, EE2/NET on Day 2, read-out: NET Cmax, Mean",10.7 ng/mL
same,Cmax,"[1]; female, human, plasma, Group B2 Period 2: SYM-1219 2 grams on Day 1, EE2/NET on Day 2, read-out: NET Cmax, Median",9.39 ng/mL
same,half-life,"[1]; female, human, plasma, Group B2 Period 2: SYM-1219 2 grams on Day 1, EE2/NET on Day 2, read-out: NET t1/2, Mean (converted)",9.51 h
same,half-life,"[1]; female, human, plasma, Group B2 Period 2: SYM-1219 2 grams on Day 1, EE2/NET on Day 2, read-out: NET t1/2, Median (converted)",9.19 h
"Cc1ncc([N+](=O)[O-])n1CC(C)O (stereo not drawn) [SYM-1219, 1-(2-hydroxypropyl)-2-methyl-5-nitromidazole]",effectiveness in treating bacterial vaginosis,"[2]; 2 gram single dose, subjects with 3 or fewer as well as 4 or more episodes in the past 12 months",effective
same,effectiveness for bacterial vaginosis compared with placebo,[2]; 2 gram single-dose,effective
same,clinical cure rate,"[2]; single 2 g oral dose, 21-30 days after treatment",67.7%
